Measurements: publication PMC5355295, “A new semisynthetic cardenolide analog 3β-[2-(1-amantadine)- 1-on-ethylamine]-digitoxigenin (AMANTADIG) affects G2/M cell cycle arrest and miRNA expression profiles and enhances proapoptotic survivin-2B expression in renal cell carcinoma cell lines” (Oncotarget, 2017)

Target: T1, Na+/K+-ATPase α1,2,3 subunit
T1 construct: gene ATP1A1; Na+/K+-ATPase α1,2,3 subunit of porcine cortex (Sigma)
Assay: ATPase activity, malachite green Pi release, […] min pre-incubation
Format: biochemical, Sus scrofa

`CO[C@H]1[C@@H](O)C[C@H](O[C@H]2[C@@H](O)C[C@H](O[C@H]3[C@@H](O)C[C@H](O[C@H]4CC[C@@]5(C)[C@H](CC[C@@H]6[C@@H]5C[C@@H](O)[C@]5(C)[C@@H](C7=CC(=O)OC7)CC[C@]65O)C4)O[C@@H]3C)O[C@@H]2C)O[C@@H]1C` [β-methyldigoxin] showed an IC50 of 16.7 µM.
